Molecular target: T1, human oxytocin receptor (Homo sapiens, UniProt P30559)
T1 construct: host or cells: CHO cells, stably transfected (pcDNA3.1 vector); membranes
T1 sequence (P30559 1-389): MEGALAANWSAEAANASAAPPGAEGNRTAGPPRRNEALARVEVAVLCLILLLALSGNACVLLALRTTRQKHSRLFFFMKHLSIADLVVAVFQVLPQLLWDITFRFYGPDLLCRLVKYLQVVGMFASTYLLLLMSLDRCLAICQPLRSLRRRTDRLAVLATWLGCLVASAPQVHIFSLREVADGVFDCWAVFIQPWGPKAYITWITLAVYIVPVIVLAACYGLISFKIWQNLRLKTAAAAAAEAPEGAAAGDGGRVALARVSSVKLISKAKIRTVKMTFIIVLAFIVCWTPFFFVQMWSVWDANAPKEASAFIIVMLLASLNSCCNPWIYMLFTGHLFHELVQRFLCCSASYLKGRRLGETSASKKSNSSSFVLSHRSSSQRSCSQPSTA
Assay: Oxytocin binding in CHO cell membranes expressing human oxytocin receptors ([3H]oxytocin)
Settings: for inhibition at 0.1 µM: read-out: OT % inhibition @ 100 nM
From the text: Oxytocin Binding in Chinese Hamster Ovary Cell Membranes Expressing Human Oxytocin Receptors
Chinese Hamster Ovary (CHO) cells stably transfected with the human oxytocin (cf. Tanizawa et al., U.S. Pat. No. 5,466,584 (1995) to Rohto Pharmaceutical Co. Ltd., Osaka, Japan) were obtained from M. Thibonnier, Case Western Reserve University School of Medicine, Cleveland, Ohio. A. Passaging and Amplification of Cells: CHO cells transfected with the human oxytocin receptors obtained from M. Thibonnier (pcDNA3.1 vector) are allowed to grow to confluency (approx. >90%) in T-150 flasks under sterile conditions, in a cell culture medium of F-12 Nutrient Mixture (HAM) with L-glutamine (Gibco Cat. #11765-054) containing 15 mM HEPES (Gibco Cat. #15630-080), 1% antibiotic/antimycotic (add 5 mL 100×, Gibco Cat. #15240-062 per 500 mL F-12), 400 μg/mL of Geneticin (add 4 mL of 50 mg/mL per 500 mL F-12) and 10% Fetal Bovine Serum (Qualified, heat inactivated, Gibco Cat. #16140-063). The medium is removed by aspiration and the cells are washed with 10 mL of Hank's Balanced Salt solution (Gibco Cat. #14175-095). The salt solution is removed by aspiration and the cells trypsinized with 5 mL of trypsin-EDTA (0.05% trypsin, 0.53 mM EDTA-4Na, Gibco Cat. #25300-070) for 1 min. The trypsin is removed by aspiration and the cells dislodged by tapping. Cell Culture medium (e.g. 30 mL for 1:30 split) is immediately added and mixed well to inactivate trypsin. 1 mL of detached cells is added to new culture flasks containing fresh Cell Culture medium (e.g. into 25 mL per T-150 flask), and mixed gently. The cells are incubated at 37° C. in 5% CO2. The medium is changed at 3 to 4 days interval (or as appropriate). The cells grow to confluency (approx. >75%–95%) within 7–8 days. All steps are done under sterile conditions. B. Membrane Preparation: The cells are washed twice gently with Hank's Balanced Salt solution (e.g., use 10 mL per T-150 flask). The excess is removed and the cells bathed for 15–30 min. in an enzyme-free Cell Dissociation Buffer (e.g., use 8 mL Hank's Based, Gibco Cat. #13150-016 per T-150 flask) until cells are loosened. The contents are transferred to centrifuge tubes (50 mL size) kept in ice bath. All subsequent steps are done at 4° C. The tubes are centrifuged at 300×g for 15 min (1380 rpm on SORVAL, Model RT6000D, using rotor for 50 mL tubes). The supernatant is discarded and the cells suspended in homogenizing buffer (10 mM Tris-HCl containing 0.25 M sucrose and 1 mM EDTA, pH 7.4) ensuring that the volume of the buffer is about ten times the volume of the cell pellet. The cells are pooled into a centrifuge tube (50 mL) and homogenized with Polytron at setting 6 for 10 sec. The homogenate is transferred into a Potter-Elvjehm homogenizer and homogenized with 3 strokes. The homogenate is centrifuged at 1500×g for 10 min at 4° C. (3100 rpm using SORVAL, model RT6000D, using rotor for 50 mL tubes). The pellet. is discarded. The supernatant is centrifuged at 100,000×g for 60 min. at 4° C. (Beckman L8-80M ultracentrifuge; spin at 37,500 rpm with rotor type 70 Ti for 50 mL tubes; 38,000 rpm with type 80Ti for 15 mL tubes; or 35,800 rpm with rotor type 45Ti). The supernantant is discarded and the pellet suspended in 3 to 4 mL of Tris buffer (50 mM TRIS-HCl, pH 7.4). The protein content is estimated by the Bradford or Lowry method. The volume of the membrane suspension is adjusted with the membrane buffer (50 mM Tris-HCl containing 0.1% BSA and 0.1 mM PMSF) to give 3.0 mg/mL (or as appropriate) of protein. The membranes are aliquoted and stored at −70° C. C. Radioligand Binding Assay: In wells of a 96-well format microliter plate, is added 90, 110 or 130 μL (to make up a final volume of 200 μL) of assay buffer containing 50 mM of Tris-HCl (pH 7.4), […], 1 mg % aprotinin, 1 mg % leupeptin, 2 mg % 1,10-phenanthroline, 10 mg % trypsin inhibitor, and 0.1 mM PMSF. The inhibitors are added on the day of the experiment. […]

[1] = 100 nM, values without parentheses

inhibition at 0.1 µM [1] [%] | Structure (SMILES) | other results
27 | CC1=C(c2ccc(C(=O)N3Cc4cccn4Cc4ccccc43)c(Cl)c2)CCCC1O (stereo not shown) [Example 14, (10,11-Dihydro-5H-pyrrolo[2,1-c][1,4]benzodiazepin-10-yl)-[2-chloro-4-(3-hydroxy-2-methyl-cyclohex-1-en-1-yl)-phenyl]-methanone] | 
67 | CC1=C(c2ccc(C(=O)N3Cc4cccn4Cc4ccccc43)cc2C)CCCC1N (stereo not shown) [Example 45, [4-(3-Amino-2-methyl-cyclohex-1-en-1-yl)-3-methyl-phenyl]-(10,11-dihydro-5H-pyrrolo[2,1-c][1,4]benzodiazepin-10-yl)-methanone] | 
96 | Cc1cc(C(=O)N2Cc3cccn3Cc3ccccc32)ccc1C1=CCCCC1 [Example 2, (10,11-Dihydro-5H-pyrrolo[2,1-c][1,4]benzodiazepin-10-yl)-(4-cyclohex-1-en-1-yl-3-methyl-phenyl)-methanone] | 
95 | O=C(c1ccc(C2=CCCCC2)cc1Cl)N1Cc2cccn2Cc2ccccc21 [Example 10, (10,11-dihydro-5H-pyrrolo[2,1-c][1,4]benzodiazepin-10-yl)-[2-chloro-4-(cyclohex-1-en1-yl)-phenyl]-methanone] | 
81 | Cc1cc(C(=O)N2Cc3cccn3Cc3ccccc32)ccc1C1=CCCCC1C (stereo not shown) [Example 29, (10,11-Dihydro-5H-pyrrolo[2,1-c][1,4]benzodiazepin-10-yl)-[3-methyl-4-(6-methyl-cyclohex-1-en-1-yl)-phenyl]-methanone] | 
76 | Cc1cc(C(=O)N2Cc3cccn3Cc3ccccc32)ccc1C1=CC(=O)CCC1 [Example 39, 3-[4-(10,11-Dihydro-5H-pyrrolo[2,1-c][1,4]benzodiazepine-10-carbonyl)-2-methyl-phenyl]-cyclohex-2-en-1-one] | 
32 | CC1(C)C2CC=C(c3ccc(C(=O)N4Cc5cccn5Cc5ccccc54)cc3)C1C2 (stereo not shown) [Example 22, (10,11-Dihydro-5H-pyrrolo[2,1-c][1,4]benzodiazepin-10-yl)-[4-(6,6-dimethyl-bicyclo[3.1.1]hept-2-en-2-yl)-phenyl]-methanone] | 
63 | Cc1cc(C(=O)N2Cc3cccn3Cc3ccccc32)ccc1C1=CC(O)CCC1 (stereo not shown) [Example 40, (10,11-Dihydro-5H-pyrrolo[2,1-c][1,4]benzodiazepin-10-yl)-[4-(3-hydroxy-cyclohex-1-en-1-yl)-3-methyl-phenyl]-methanone] | 
90 | COc1cc(C2=C(C)C(=O)CCC2)c(Cl)cc1C(=O)N1Cc2cccn2Cc2ccccc21 [Example 9, 3-[2-Chloro-5-methoxy-4-(5H-pyrrolo[2,1-c][1,4]benzodiazepin-10(11H)-yl-carbonyl)phenyl]-2-methyl-cyclohex-2-en-1-one] | 
56 | CC1=C(c2ccc(C(=O)N3Cc4cccn4Cc4ccccc43)cc2C)C(C)CCC1 (stereo not shown) [Example 33, (10,11-Dihydro-5H-pyrrolo[2,1-c][1,4]benzodiazepin-10-yl)-[4-(2,6-dimethyl-cyclohex-1-en-1-yl)-3-methyl-phenyl]-methanone] | 
 | CC(C)(C)C1CCCC=C1c1ccc(C(=O)N2Cc3cccn3Cc3ccccc32)cc1 (stereo not shown) [Example 20, (10,11-5H-Dihydro-pyrrolo[2,1-c][1,4]benzodiazepin-10-yl)-[4-(6-tert-butyl-cyclohex-1-en-1-yl)-phenyl]-methanone] | OT % inhibition @ 100 nM [1]: 27%
96 | CO[C@@H]1CCCC(c2ccc(C(=O)N3Cc4cccn4Cc4ccccc43)cc2C)=C1C [Example 44, 10-{4-[(3R)-3-Methoxy-2-methylcyclohex-1-en-1-yl]-3-methylbenzoyl}-10,11-dihydro-5H-pyrrolo[2,1-c][1,4]benzodiazepine] | 
67 | Cc1cc(C(=O)N2Cc3cccn3Cc3ccccc32)ccc1C1=CCCCC1(C)C [Example 30, (10,11-Dihydro-5H-pyrrolo[2,1-c][1,4]benzodiazepin-10-yl)-[4-(6,6-dimethyl-cyclohex-1-en-1-yl)-3-methyl-phenyl]-methanone] | 
98 | CC1=C(c2ccc(C(=O)N3Cc4cccn4Cc4ccccc43)c(Cl)c2)CCCC1=O [Example 13, (10,11-Dihydro-5H-pyrrolo[2,1-c][1,4]benzodiazepin-10-yl)-[2-chloro-4-(2-methyl-3-oxo-cyclohex-1-en-1-yl)-phenyl]-methanone] | 
76 | CC1(C)CCCC=C1c1ccc(C(=O)N2Cc3cccn3Cc3ccccc32)cc1 [Example 17, (10,11-Dihydro-5H-pyrrolo[2,1-c][1,4]benzodiazepin-10-yl)-[4-(6,6-dimethyl-cyclohex-1-en-1-yl)-phenyl]-methanone] | 
96 | CC1=C(c2ccc(C(=O)N3Cc4cccn4Cc4ccccc43)cc2C)CCC[C@@H]1O (single isomer, unassigned) [Example 43] | 
13 | CC1=C(c2ccc(C(=O)N3Cc4cccn4Cc4ccccc43)cc2C)CCCC1O (racemic) [Example 5, (10,11-Dihydro-5H-pyrrolo[2,1-c][1,4]benzodiazepin-10-yl)-[4-(3-hydroxy-2-methyl-cyclohex-1-en-1-yl)-3-methyl-phenyl]-methanone] | 
 | Cc1cc(C(=O)N2Cc3cccn3Cc3ccccc32)ccc1C1=CCCc2ccccc21 [Example 3, (10,11-Dihydro-5H-pyrrolo[2,1-c][1,4]benzodiazepin-10-yl)-[4-(3,4-dihydro-naphthalen-1-yl)-3-methyl-phenyl]-methanone] | IC50 (values in parentheses, read-out: OT (IC50)): 24 nM
80 | CC1=C(c2ccc(C(=O)N3Cc4cccn4Cc4ccccc43)cc2)CCCC1=O [Example 26, 3-[4-(10,11-Dihydro-5H-pyrrolo[2,1-c][1,4]benzodiazepine-10-carbonyl)-phenyl]-2-methyl-cyclohex-2-en-1-one] | 

— patent publication US7022699B2, “Cyclohexenyl phenyl diazepines vasopressin and oxytocin receptor modulators” (Wyeth, priority 2001, dated 2006)
